In patent US20210253518A1, “KINASE INHIBITOR” (NISSAN CHEMICAL CORPORATION, priority 2018, published 2021):

Each molecule was assayed on YAP (phospho-S127 and total) (assay: YAP phosphorylation inhibitory action in SKOV3 cells (HTRF, YAP-total kit / YAP phospho-S127 kit)). Conditions: 2D condition, 10 μM, 1 hr, Non-treatment as 100%.
Type: cell-based, human
Description: Human ovarian cancer cell line SKOV3 (manufactured by DS Pharma Biomedical Co., Ltd) was precultured (single layer culture) in a 15% FBS-containing McCoy's 5a medium (manufactured by Sigma Ltd. Aldrich). The above-mentioned cells in the logarithmic growth phase were washed with PBS, a 0.25% (w/v) trypsin-1 mmol/L ethylenediaminetetraacetic acid (EDTA) solution (manufactured by Fujifilm Wako Pure Chemical Corporation) was added, and adherent cells were detached by incubating at 37° C. for 3 min. The above-mentioned medium was added and the mixture was centrifuged and resuspended in the same medium.
According to the method of patent document (WO 2014/017513), a composition of 10% FBS-containing DMEM medium (Phenol-red free, manufactured by FUJIFILM Wako Pure Chemical Corporation) containing 0.015% (w/v) deacylated gellan gum (KELCOGEL CG-LA, manufactured by SANSHO Co., Ltd.) was prepared using FCeM-series Preparation Kit (manufactured by FUJIFILM Wako Pure Chemical Corporation). Then, various cells prepared above were suspended in the above-mentioned medium composition (3D conditions) added with deacylated gellan gum or a medium without the addition (2D conditions), and seeded on a 50 μL/well (manufactured by Corning Incorporated, 96 well flat bottom plate, #3585, 2D conditions) or 25 μL/well (manufactured by Corning Incorporated, 96 well low adhesion flat bottom plate, #3474) at 100000 cells/well. The plate was allowed to stand at 37° C. in a 5% CO2 incubator, and the compound of the present invention diluted with the medium at 2 or 6 times the final concentration, DMSO, or the medium alone was added to the plate 3 hr after the seeding at 50 μL/well (2D conditions) or 5 μL/well (3D conditions) to make the final concentration of each compound 10 μM. After culture at 37° C. in a 5% CO2 incubator for 1 hr, the supernatant was aspirated, supplemented Lysis buffer (1-fold concentration, manufactured by Cisbio, YAP-total kit or YAP phospho-S127 kit) (50 μL) was added under 2D conditions, and supplemented Lysys buffer (4-fold concentration) (10 μL) was added to the culture supernatant under 3D conditions, and the mixture was stirred by a plate shaker for 30 min. Thereafter, the plate was centrifuged, 16 μL of the supernatant was transferred to a 384-well white plate (Corning, #4512), and each antibody solution (pYAP d2 antibody or Total-YAP d2 antibody, and pYAP Cryptate antibody or Total-YAP Cryptate antibody) included in the kit was added at 4 μL/well in total, and the mixture was allowed to stand at room temperature overnight. As a blank control, pYAP Cryptate antibody or Total-YAP Cryptate antibody alone was added to cells free of stimulation with compound and the mixture was treated in the same manner (Non-treatment). The next day, the wavelengths at 665 nm and 615 nm were measured in the HTRF mode of EnVision (manufactured by PerkinElmer).
The obtained signal was calculated as follows. Ratio=signal (665 nm)/signal (615 nm)×10000, ΔR=Signal(Ratio)−Background fluorescence, and the relative value with respect to ΔR of the compound non-addition group (Non-treatment) as 100% was calculated, and the phosphorylated YAP amount or total YAP amount by each compound was evaluated.

**Q.** `CC/C(=N\NC(=O)C(C)Nc1ccccc1)c1ccc(O)c(C)c1O` (stereo not drawn) [k-1:B-1] was tested. Which “phosphorylated YAP (%)” value did it give?
**A.** 14%

**Q.** What about the “total YAP (%)” value of the same molecule?
**A.** 89%

**Q.** With `CCC(=NNC(=O)CNc1ccccc1)c1ccc(O)c(C)c1O` [k-1:H-1] as the molecule, how does the “phosphorylated YAP (%)” value read?
**A.** 38%

**Q.** And the “total YAP (%)” value?
**A.** 94%

**Q.** How did the “phosphorylated YAP (%)” value turn out when `CC/C(=N\NC(=O)NCc1cccc(O)c1)c1ccc(O)c(C)c1O` [k-1:J-1] was run?
**A.** 13%

**Q.** What about the “total YAP (%)” value of the same molecule?
**A.** 86%

Same assay, conditions: 3D condition, 10 μM, 1 hr, Non-treatment as 100%

**Q.** With `CC/C(=N\NC(=O)C(C)Nc1ccccc1)c1ccc(O)c(C)c1O` (stereo not drawn) [k-1:B-1] as the molecule, how does the “phosphorylated YAP (%)” value read?
**A.** 31%

**Q.** And the “total YAP (%)” value?
**A.** 99%

**Q.** Which results are given for `CCC(=NNC(=O)CNc1ccccc1)c1ccc(O)c(C)c1O` [k-1:H-1]?
**A.** phosphorylated YAP (%): 80%; total YAP (%): 107%

**Q.** What does the source list for `CC/C(=N\NC(=O)NCc1cccc(O)c1)c1ccc(O)c(C)c1O` [k-1:J-1]?
**A.** phosphorylated YAP (%): 30%; total YAP (%): 109%

These molecules were tested on TAZ protein (assay: Imaging analysis of nuclear translocation in human bone marrow-derived mesenchymal stem cells). Conditions: 10 μM, 4 hr, no addition 10.05.
Type: cell-based
Description: (§1) Nine fields of view were imaged per well using a 20× objective lens of Operatta CLS. The cell nucleus region and the cytoplasm region were identified from the obtained fluorescence images by using the analysis software Harmony (manufactured by PerkinElmer), and AlexaFluor® 647 fluorescence intensity per unit area and the AlexaFluor® 555 fluorescence intensity per unit area in each region were extracted. The nuclear translocation was evaluated by calculating the ratio of the fluorescence intensity of the cell nucleus region to the fluorescence intensity of the cytoplasmic region from the extracted values. The value becomes greater than 1 as the YAP protein and TAZ protein transfer into the cell nucleus, and less than 1 when localized in the cytoplasm.
(§2) Compounds k-1:B-1, k-1:H-1, and k-1:J-1 were evaluated for nuclear translocation of YAP protein and TAZ protein. For the nuclear translocation, imaging analysis was performed using the human bone marrow-derived mesenchymal stem cells (manufactured by PromoCell) and OperettaCLS (manufactured by PerkinElmer) described in Example 4. The compounds were added such that the final concentration of the test concentration of k-1:B-1, k-1:H-1, and k-1:J-1 was 10 μM.
(§3) Human bone marrow-derived mesenchymal stem cells cultured according to the protocol recommended by PromoCell were seeded on a 96-well plate (manufactured by PerkinElmer, CellCarrier-Ultra) at 25,000 cells/90 μL/well on the cycloolefin bottom surface, and cultured in a CO2 incubator (37° C., 5% CO2) for 1 day. After culturing, k-1:B-1, k-1:H-1, and k-1:J-1 solutions having a concentration of 100 μM were added. The cells were cultured in a CO2 incubator at 37° C. for 4 hr. The medium was exchanged with 4% para-formaldehyde solution, and the cells were fixed by allowing to stand at room temperature for 10 min. The fixed cells were subjected to immunostaining by the method described in Example 4.

**Q.** How did the “TAZ nuclear translocation rate” value turn out when `CC/C(=N\NC(=O)C(C)Nc1ccccc1)c1ccc(O)c(C)c1O` (stereo not drawn) [k-1:B-1] was run?
**A.** 11.59

**Q.** How did the “TAZ nuclear translocation rate” value turn out when `CCC(=NNC(=O)CNc1ccccc1)c1ccc(O)c(C)c1O` [k-1:H-1] was run?
**A.** 13.42

**Q.** For `CC/C(=N\NC(=O)NCc1cccc(O)c1)c1ccc(O)c(C)c1O` [k-1:J-1], which “TAZ nuclear translocation rate” value is on record?
**A.** 14.95

Each molecule was assayed on YAP protein in the same assay as above. Conditions: 10 μM, 4 hr, no addition 8.96.
Type: cell-based
Description: as §1, §2, §3

**Q.** With `CC/C(=N\NC(=O)C(C)Nc1ccccc1)c1ccc(O)c(C)c1O` (stereo not drawn) [k-1:B-1] as the molecule, how does the “YAP nuclear translocation rate” value read?
**A.** 10.17

**Q.** For `CCC(=NNC(=O)CNc1ccccc1)c1ccc(O)c(C)c1O` [k-1:H-1], which “YAP nuclear translocation rate” value is on record?
**A.** 11.55

**Q.** Which “YAP nuclear translocation rate” value does the source give for `CC/C(=N\NC(=O)NCc1cccc(O)c1)c1ccc(O)c(C)c1O` [k-1:J-1] here?
**A.** 12.70
